Columns and labels:
[1] = system: SMN2 minigene (full length SMN2 minigene mRNA containing SMN2 exon 7); test: SMN2 minigene mRNA splicing RT-qPCR assay in cultured cells; assay type: cell-based, human; conditions: HEK293H cells stably transfected with SMN2-A minigene, 24 hours, 7-point concentration curve, 1.5-fold relative to vehicle-treated cells; for EC (1.5-fold): Homo sapiens, HEK293-H, read-out: EC1.5x for production of full length SMN2 mRNA
Outline: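 Lysates → one-step RT-qPCR, minigene-specific primers (0.4 μM final) + GAPDH multiplex, 40 cycles. FL/GAPDH vs DMSO; EC1.5x, star-binned.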

[2] = system: Smn protein; test: Smn protein assay in cultured cells (SMN HTRF); assay type: cell-based, human; conditions: 48 hours; for maximum fold (Fold) increase of Smn protein: SMA patient fibroblast cells, 7-point concentration data, fold increase relative to vehicle control (SMN HTRF); for EC1.5x (concentration giving 1.5-fold Smn protein increase): SMA Type 1 patient fibroblast cells (GM03813), 7-point concentration curve, SMN HTRF, concentration producing 1.5 times Smn protein vs DMSO vehicle control, read-out: EC1.5x for Smn protein expression
Outline: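 Smn in SMA fibroblast lysates, measured by anti-SMN HTRF after 48 h compound exposure; EC1.5x from fold change over vehicle.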

Compound | EC (1.5-fold) [1] | maximum fold (Fold) increase of Smn protein [2] | EC1.5x (concentration giving 1.5-fold Smn protein increase) [2] | EC1.5x for production of full length SMN2 mRNA [1]
Cc1cn2cc(-c3cc4ccc(N5CC6CC5CN6)cc4oc3=O)cc2cn1 (stereo not drawn) [Compound 744, 7-(2,5-diazabicyclo[2.2.1]hept-2-yl)-3-(3-methylpyrrolo[1,2-a]pyrazin-7-yl)-2H-chromen-2-one] | < 0.1 µM | ** (fold increase between >1.2 and ≤1.35) |  | 
CN(C)CCN(C)c1ccc2cc(-c3nc4ccccc4o3)c(=O)oc2c1 [Compound 49, 3-(1,3-benzoxazol-2-yl)-7-{[2-(dimethylamino)ethyl](methyl)amino}-2H-chromen-2-one] | 3 to 30 µM | * (maximum fold increase of ≤1.2) |  | 
Cc1cn2cc(-c3cc4ccc(N5CC6(CC(N)C6)C5)cc4oc3=O)nc2c(C)n1 [Compound 977, 7-(6-amino-2-azaspiro[3.3]hept-2-yl)-3-(6,8-dimethylimidazo[1,2-a]pyrazin-2-yl)-2H-chromen-2-one] | 1 to 3 µM | * (maximum fold increase of ≤1.2) |  | 
Cc1cn2cc(-c3cc4ccc(CCNCCO)cc4oc3=O)nc2c(C)n1 [Compound 870, 3-(6,8-dimethylimidazo[1,2-a]pyrazin-2-yl)-7-{2-[(2-hydroxyethyl)amino]ethyl}-2H-chromen-2-one] | < 0.1 µM | **** (fold increase between >1.5 and ≤1.65) | < 300 nM | 
CN1CCN(c2ccc3cc(-c4nc5ncccc5o4)c(=O)oc3c2)CC1 [Compound 111, 7-(4-methylpiperazin-1-yl)-3-([1,3]oxazolo[4,5-b]pyridin-2-yl)-2H-chromen-2-one] | 3 to 30 µM | ** (fold increase between >1.2 and ≤1.35) |  | 
Cc1cn2cc(-c3cc4ccc(N5CCN(C)CC5)cc4oc3=O)nc2c(C)n1 [Compound 516, 3-(6,8-dimethylimidazo[1,2-a]pyrazin-2-yl)-7-(4-methylpiperazin-1-yl)-2H-chromen-2-one] | < 0.1 µM | ***** (fold increase >1.65) | < 300 nM | 
Cc1nccn2cc(-c3cc4ccc(N5CCN[C@H](C)C5)cc4oc3=O)nc12 [Compound 559, 3-(8-methylimidazo[1,2-a]pyrazin-2-yl)-7-[(3R)-3-methylpiperazin-1-yl]-2H-chromen-2-one] | 0.3 to 1 µM | *** (fold increase between >1.35 and ≤1.5) |  | 
CN1CCCN(c2ccc3cc(-c4cn5ccncc5n4)c(=O)oc3c2)CC1 [Compound 455, 3-(imidazo[1,2-a]pyrazin-2-yl)-7-(4-methyl-1,4-diazepan-1-yl)-2H-chromen-2-one] | < 0.1 µM | **** (fold increase between >1.5 and ≤1.65) | 300 to 1000 nM | 
Cc1cc2cc(-c3cc4ccc(N5CCN(CC6CC6)CC5)cc4oc3=O)oc2c(C)n1 [Compound 816, 7-[4-(cyclopropylmethyl)piperazin-1-yl]-3-(5,7-dimethylfuro[2,3-c]pyridin-2-yl)-2H-chromen-2-one] | < 0.1 µM | **** (fold increase between >1.5 and ≤1.65) | 300 to 1000 nM | 
CN1CCN(C(=O)c2ccc3cc(-c4nc5c(Cl)cccc5s4)c(=O)oc3c2)CC1 [Cpd 28, 3-(4-chloro-1,3-benzothiazol-2-yl)-7-[(4-methylpiperazin-1-yl)carbonyl]-2H-chromen-2-one] | 3 to 30 µM | * (maximum fold increase of ≤1.2) |  | 
7-(1,4-diazepan-1-yl)-3-(6-methylimidazo[1,2-a]pyrazin-2-yl)-2H-chromen-2-one [Compound 477] |  | ***** (fold increase >1.65) | < 300 nM | ***** (EC1.5x≤0.1 μM)
O=C(O)C(F)(F)F.O=c1oc2cc(N3CCNCC3)ccc2cc1-c1nc2cccc(C(F)(F)F)c2o1 [Compound 2, 7-(piperazin-1-yl)-3[7-(trifluoromethyl)-1,3-benzoxazol-2-yl]-2H-chromen-2-one trifluoroacetate] | 0.3 to 1 µM | * (maximum fold increase of ≤1.2) |  | 
Cc1cn2cc(-c3cc4ccc(N5CCN[C@@H](C)C5)cc4oc3=O)cc(F)c2n1 [Compound 984, 3-(8-fluoro-2-methylimidazo[1,2-a]pyridin-6-yl)-7-[(3S)-3-methylpiperazin-1-yl]-2H-chromen-2-one] | < 0.1 µM | ***** (fold increase >1.65) | < 300 nM | 
O=c1oc2cc(N3CCNCC3)ccc2cc1-c1cn2ccc(C(F)(F)F)cc2n1 [Compound 114, 7-(piperazin-1-yl)-3-[7-(trifluoromethyl)imidazo[1,2-a]pyridin-2-yl]-2H-chromen-2-one] | < 0.1 µM | ** (fold increase between >1.2 and ≤1.35) |  | 
O=c1oc2cc(N3CCNCC3)ccc2cc1-c1cn2ccccc2n1 [Compound 34, 3-(imidazo[1,2-a]pyridin-2-yl)-7-(piperazin-1-yl)-2H-chromen-2-one] | 0.3 to 1 µM | ** (fold increase between >1.2 and ≤1.35) |  | 
Cc1cn2cc(-c3cc4ccc(N5CCN[C@H](C)C5)cc4oc3=O)nc2cn1 [Compound 570, 3-(6-methylimidazo[1,2-a]pyrazin-2-yl)-7-[(3R)-3-methylpiperazin-1-yl]-2H-chromen-2-one] | < 0.1 µM | ***** (fold increase >1.65) | < 300 nM | 
Cc1cc2oc(-c3cc4ccc(N5CCNCC5)cc4oc3=O)cc2c(C)n1 [Compound 831, 3-(4,6-dimethylfuro[3,2-c]pyridin-2-yl)-7-(piperazin-1-yl)-2H-chromen-2-one] | 1 to 3 µM | * (maximum fold increase of ≤1.2) |  | 
Cc1cn2cc(-c3cc4ccc(N5CC6(CN(C)C6)C5)cc4oc3=O)nc2c(C)n1 [Compound 972, 3-(6,8-dimethylimidazo[1,2-a]pyrazin-2-yl)-7-(6-methyl-2,6-diazaspiro[3.3]hept-2-yl)-2H-chromen-2-one] | 0.3 to 1 µM | *** (fold increase between >1.35 and ≤1.5) | 3000 to 10000 nM | 
CCCN1CCN(c2ccc3cc(-c4cc5ccccn5n4)c(=O)oc3c2)CC1 [Compound 195, 7-(4-propylpiperazin-1-yl)-3-(pyrazolo[1,5-a]pyridin-2-yl)-2H-chromen-2-one] | 1 to 3 µM | * (maximum fold increase of ≤1.2) |  | 
Cc1cn2cc(-c3cc4ccc(N5C[C@@H](C)N[C@@H](C)C5)cc4oc3=O)nc2c(C)n1 [Compound 517, 3-(6,8-dimethylimidazo[1,2-a]pyrazin-2-yl)-7-[(3R,5S)-3,5-dimethylpiperazin-1-yl]-2H-chromen-2-one] | < 0.1 µM | ***** (fold increase >1.65) | < 300 nM | 
Cc1nc2ccc(-c3cc4ccc(N5CCN(C)[C@@H](C)C5)cc4oc3=O)cc2s1 [Compound 776, 7-[(3S)-3,4-dimethylpiperazin-1-yl]-3-(2-methyl-1,3-benzothiazol-6-yl)-2H-chromen-2-one acetate (2:1)] | 1 to 3 µM | ** (fold increase between >1.2 and ≤1.35) |  | 
